Measurements: US20260363243A1 (priority 2022, published 2026)

System: cucumber downy mildew
Assay: Activity in vivo for inhibiting cucumber downy mildew (potting method, greenhouse)
Conditions: for efficacy compared with dimethomorph and cyazofamid / efficacy compared with oxathiapiprolin / bactericidal activity: in words
[1] = 0.078 mg/L, re-screening, Table 2
[2] = 0.312 mg/L, re-screening, Table 2
[3] = 1.25 mg/L, re-screening, Table 2

From the text: The test and investigation method refers to a SOP-SC-1098 cucumber downy mildew potting method in the fungicide section of Standard operation Specification for testing biological Activity of pesticides written by Kang Zhuo and Gu Baogen.

Row | SMILES | Control effect (1.25 mg/L, Table 1) | Control effect (5 mg/L, Table 1) | Control effect (20 mg/L, Table 1) | further results
1 | CO/C=C/C(=O)N1CCC(c2nc(C3=NOC(c4c(F)cccc4F)C3)cs2)CC1 (stereo not shown) [Compound I-1] | A (90%≤A≤100%) | A (90%≤A≤100%) | A (90%≤A≤100%) | –
2 | CO/C=C(\F)C(=O)N1CCC(c2nc(C3=NOC(c4c(F)cccc4F)C3)cs2)CC1 (stereo not shown) [Compound I-2] | B (75%≤B<90%) | B (75%≤B<90%) | A (90%≤A≤100%) | –
3 | CO/C=C(\Cl)C(=O)N1CCC(c2nc(C3=NOC(c4c(F)cccc4F)C3)cs2)CC1 (stereo not shown) [Compound I-3] | A (90%≤A≤100%) | A (90%≤A≤100%) | A (90%≤A≤100%) | –
4 | CO/C=C(\Br)C(=O)N1CCC(c2nc(C3=NOC(c4c(F)cccc4F)C3)cs2)CC1 (stereo not shown) [Compound I-4] | B (75%≤B<90%) | A (90%≤A≤100%) | A (90%≤A≤100%) | –
5 | CO/C=C(\I)C(=O)N1CCC(c2nc(C3=NOC(c4c(F)cccc4F)C3)cs2)CC1 (stereo not shown) [Compound I-5] | C (60%≤C<75%) | B (75%≤B<90%) | B (75%≤B<90%) | –
6 | CO/C=C(\C#N)C(=O)N1CCC(c2nc(C3=NOC(c4c(F)cccc4F)C3)cs2)CC1 (stereo not shown) [Compound I-6] | – | – | B (75%≤B<90%) | –
7 | CO/C=C(\C)C(=O)N1CCC(c2nc(C3=NOC(c4c(F)cccc4F)C3)cs2)CC1 (stereo not shown) [Compound I-7] | – | B (75%≤B<90%) | A (90%≤A≤100%) | –
8 | CC/C(=C\OC)C(=O)N1CCC(c2nc(C3=NOC(c4c(F)cccc4F)C3)cs2)CC1 (stereo not shown) [Compound I-8] | A (90%≤A≤100%) | A (90%≤A≤100%) | A (90%≤A≤100%) | –
9 | CCC/C(=C\OC)C(=O)N1CCC(c2nc(C3=NOC(c4c(F)cccc4F)C3)cs2)CC1 (stereo not shown) [Compound I-9] | A (90%≤A≤100%) | A (90%≤A≤100%) | A (90%≤A≤100%) | –
10 | CO/C=C(/C(=O)N1CCC(c2nc(C3=NOC(c4c(F)cccc4F)C3)cs2)CC1)C(C)C (stereo not shown) [Compound I-10] | A (90%≤A≤100%) | A (90%≤A≤100%) | A (90%≤A≤100%) | –
11 | CO/C=C(/C(=O)N1CCC(c2nc(C3=NOC(c4c(F)cccc4F)C3)cs2)CC1)c1ccccc1C (stereo not shown) [Compound I-11] | – | – | C (60%≤C<75%) | –
12 | CO/C=C(/C(=O)N1CCC(c2nc(C3=NOC(c4c(F)cccc4F)C3)cs2)CC1)c1ccccc1 (stereo not shown) [Compound I-12] | – | D (45%≤D<60%) | B (75%≤B<90%) | –
13 | CO/C=C(/C(=O)N1CCC(c2nc(C3=NOC(c4c(F)cccc4F)C3)cs2)CC1)c1ccc(C)cc1 (stereo not shown) [Compound I-13] | – | B (75%≤B<90%) | A (90%≤A≤100%) | –
14 | CO/C=C(/C(=O)N1CCC(c2nc(C3=NOC(c4c(F)cccc4F)C3)cs2)CC1)c1cc(C)ccc1C (stereo not shown) [Compound I-14] | A (90%≤A≤100%) | A (90%≤A≤100%) | A (90%≤A≤100%) | –
15 | CO/C=C(/C(=O)N1CCC(c2nc(C3=NOC(c4c(F)cccc4F)C3)cs2)CC1)c1cc(Cl)ccc1Cl (stereo not shown) [Compound I-15] | – | C (60%≤C<75%) | C (60%≤C<75%) | –
16 | C=CC(=O)N1CCC(c2nc(C3=NOC(c4c(F)cccc4F)C3)cs2)CC1 (stereo not shown) [Compound I-16] | D (45%≤D<60%) | C (60%≤C<75%) | B (75%≤B<90%) | –
17 | CCO/C=C/C(=O)N1CCC(c2nc(C3=NOC(c4c(F)cccc4F)C3)cs2)CC1 (stereo not shown) [Compound I-17] | A (90%≤A≤100%) | A (90%≤A≤100%) | A (90%≤A≤100%) | –
18 | CO/N=C(/C(=O)N1CCC(c2nc(C3=NOC(c4c(F)cccc4F)C3)cs2)CC1)c1ccccc1 (stereo not shown) [Compound I-18] | – | – | D (45%≤D<60%) | –
19 | CO/N=C(/C(=O)N1CCC(c2nc(C3=NOC(c4c(F)cccc4F)C3)cs2)CC1)c1ccccc1C (stereo not shown) [Compound I-19] | A (90%≤A≤100%) | A (90%≤A≤100%) | A (90%≤A≤100%) | Control effect [1]: B (75%≤B<90%); Control effect [2]: A (90%≤A≤100%); Control effect [3]: A (90%≤A≤100%)
20 | CO/N=C(/C(=O)N1CCC(c2nc(C3=NOC(c4c(F)cccc4F)C3)cs2)CC1)c1cccc(C)c1 (stereo not shown) [Compound I-20] | – | – | D (45%≤D<60%) | –
21 | CO/N=C(/C(=O)N1CCC(c2nc(C3=NOC(c4c(F)cccc4F)C3)cs2)CC1)c1ccc(C)cc1C (stereo not shown) [Compound I-21] | – | – | D (45%≤D<60%) | –

Row | SMILES | Control effect (1.25 mg/L, Table 1) | Control effect (5 mg/L, Table 1) | Control effect (20 mg/L, Table 1) | further results
22 | CO/N=C/C(=O)N1CCC(c2nc(C3=NOC(c4c(F)cccc4F)C3)cs2)CC1 (stereo not shown) [Compound I-22] | A (90%≤A≤100%) | A (90%≤A≤100%) | A (90%≤A≤100%) | Control effect [1]: B (75%≤B<90%); Control effect [2]: B (75%≤B<90%); Control effect [3]: A (90%≤A≤100%)
23 | CO/N=C(\C)C(=O)N1CCC(c2nc(C3=NOC(c4c(F)cccc4F)C3)cs2)CC1 (stereo not shown) [Compound I-23] | D (45%≤D<60%) | B (75%≤B<90%) | B (75%≤B<90%) | –
24 | CC/C(=N\OC)C(=O)N1CCC(c2nc(C3=NOC(c4c(F)cccc4F)C3)cs2)CC1 (stereo not shown) [Compound I-24] | C (60%≤C<75%) | B (75%≤B<90%) | A (90%≤A≤100%) | –
25 | CO/N=C(/C(=O)N1CCC(c2nc(C3=NOC(c4c(F)cccc4F)C3)cs2)CC1)c1cc(C)ccc1C (stereo not shown) [Compound I-25] | C (60%≤C<75%) | B (75%≤B<90%) | A (90%≤A≤100%) | –
26 | CCO/N=C(/C(=O)N1CCC(c2nc(C3=NOC(c4c(F)cccc4F)C3)cs2)CC1)c1cc(C)ccc1C (stereo not shown) [Compound I-26] | D (45%≤D<60%) | D (45%≤D<60%) | C (60%≤C<75%) | –
27 | CCO/N=C(\C#N)C(=O)N1CCC(c2nc(C3=NOC(c4c(F)cccc4F)C3)cs2)CC1 (stereo not shown) [Compound I-28] | – | B (75%≤B<90%) | A (90%≤A≤100%) | –
28 | CCO/N=C/C(=O)N1CCC(c2nc(C3=NOC(c4c(F)cccc4F)C3)cs2)CC1 (stereo not shown) [Compound I-29] | A (90%≤A≤100%) | A (90%≤A≤100%) | A (90%≤A≤100%) | –
29 | CCO/C(C)=C/C(=O)N1CCC(c2nc(C3=NOC(c4c(F)cccc4F)C3)cs2)CC1 (stereo not shown) [Compound I-30] | B (75%≤B<90%) | B (75%≤B<90%) | A (90%≤A≤100%) | –
30 | COC(CC(=O)N1CCC(c2nc(C3=NOC(c4c(F)cccc4F)C3)cs2)CC1)OC (stereo not shown) [II-1] | A (90%≤A≤100%) | A (90%≤A≤100%) | A (90%≤A≤100%) | –
31 | CCOC(CC(=O)N1CCC(c2nc(C3=NOC(c4c(F)cccc4F)C3)cs2)CC1)OCC (stereo not shown) [II-2] | A (90%≤A≤100%) | A (90%≤A≤100%) | A (90%≤A≤100%) | Control effect [1]: B (75%≤B<90%); Control effect [2]: A (90%≤A≤100%); Control effect [3]: A (90%≤A≤100%)
32 | CCCOC(CC(=O)N1CCC(c2nc(C3=NOC(c4c(F)cccc4F)C3)cs2)CC1)OCC (stereo not shown) [II-4] | A (90%≤A≤100%) | A (90%≤A≤100%) | A (90%≤A≤100%) | efficacy compared with dimethomorph and cyazofamid (0.078 mg/L): superior to that of dimethomorph and cyazofamid; efficacy compared with oxathiapiprolin (0.078 mg/L): equivalent to that of oxathiapiprolin at the same concentration; Control effect (0.078 mg/L, re-screening): ≥ 90%; Control effect [1]: A (90%≤A≤100%); Control effect [2]: A (90%≤A≤100%); Control effect [3]: A (90%≤A≤100%); bactericidal activity (re-screening): excellent bactericidal activity
33 | CCOC(CC(=O)N1CCC(c2nc(C3=NOC(c4c(F)cccc4F)C3)cs2)CC1)OCc1ccccc1 (stereo not shown) [II-5] | – | D (45%≤D<60%) | A (90%≤A≤100%) | –
34 | COC(OC)C(C)C(=O)N1CCC(c2nc(C3=NOC(c4c(F)cccc4F)C3)cs2)CC1 (stereo not shown) [II-6] | – | D (45%≤D<60%) | C (60%≤C<75%) | –
35 | CCC(C(=O)N1CCC(c2nc(C3=NOC(c4c(F)cccc4F)C3)cs2)CC1)C(OC)OC (stereo not shown) [II-7] | – | D (45%≤D<60%) | B (75%≤B<90%) | –
36 | CCCC(C(=O)N1CCC(c2nc(C3=NOC(c4c(F)cccc4F)C3)cs2)CC1)C(OC)OC (stereo not shown) [II-8] | D (45%≤D<60%) | C (60%≤C<75%) | A (90%≤A≤100%) | –
37 | CCCCC(C(=O)N1CCC(c2nc(C3=NOC(c4c(F)cccc4F)C3)cs2)CC1)C(OC)OC (stereo not shown) [II-9] | D (45%≤D<60%) | B (75%≤B<90%) | A (90%≤A≤100%) | –
38 | COC(OC)C(C(=O)N1CCC(c2nc(C3=NOC(c4c(F)cccc4F)C3)cs2)CC1)c1ccccc1 (stereo not shown) [II-10] | – | – | D (45%≤D<60%) | –
39 | CC1(CC(=O)N2CCC(c3nc(C4=NOC(c5c(F)cccc5F)C4)cs3)CC2)OCCO1 (stereo not shown) [II-11] | D (45%≤D<60%) | C (60%≤C<75%) | A (90%≤A≤100%) | –
40 | CC1COC(C)(CC(=O)N2CCC(c3nc(C4=NOC(c5c(F)cccc5F)C4)cs3)CC2)O1 (stereo not shown) [II-12] | – | D (45%≤D<60%) | A (90%≤A≤100%) | –
41 | CCOC(CC(=O)N1CCC(c2nc(C3=NOC(c4c(F)cccc4F)C3)cs2)CC1)OCC(F)(F)F (stereo not shown) [II-19] | A (90%≤A≤100%) | A (90%≤A≤100%) | A (90%≤A≤100%) | Control effect (0.005 mg/L, re-screening, Table 2): B (75%≤B<90%); Control effect (0.02 mg/L, re-screening, Table 2): A (90%≤A≤100%); efficacy compared with dimethomorph and cyazofamid (0.078 mg/L): superior to that of dimethomorph and cyazofamid; efficacy compared with oxathiapiprolin (0.078 mg/L): equivalent to that of oxathiapiprolin at the same concentration; Control effect (0.078 mg/L, re-screening): ≥ 90%; Control effect [1]: A (90%≤A≤100%); Control effect [2]: A (90%≤A≤100%); Control effect (0.625 mg/L, Table 3): A (90% ≤ A ≤ 100%); Control effect [3]: A (90%≤A≤100%); Control effect (2.5 mg/L, Table 3): A (90% ≤ A ≤ 100%); Control effect (10 mg/L, Table 3): A (90% ≤ A ≤ 100%); bactericidal activity (re-screening): excellent bactericidal activity
